From patent US4645840A, “Intermediates for preparing 1,2-dihydropyrido[3,4-b]-pyrazines” (Southern Research Institute, priority 1986, dated 1987)
Where two headings read alike, the source gives them in different places. Each block holds one compound with its values, some of them ahead of it.

Tests used:
several neoplasms = conditions: cited from earlier work
[1] = system: Vincristine-resistant line of P388; experiment: Activity against vincristine-resistant line of P388 in mice; assay type: in vivo; conditions: for activity against P388 cells resistant to vincristine: in mice
Excerpt: (g) Vincristineresistant line of P388. L. J. Wilkoff and E. A. Dulmadge, […]

[2] = system: lymphoid leukemia L1210 cells; experiment: Mitotic index of cultured lymphoid leukemia L1210 cells; assay type: cell-based
[3] = system: lymphocytic leukemia P388 cells; experiment: Activity against lymphocytic leukemia P388 (10^6 tumor cell implant, i.p.) in mice; assay type: in vivo; conditions: P388, 10^6 cells i.p.
Excerpt: (c) Lymphocytic leukemia P388. R. I. Geran, N. H. Greenbert, M. M.
MacDonald, A. M. Schumacker, and B. J. Abbott, Cancer Chemother. Rep., 3

[4] = system: lymphoid leukemia L1210 cells; experiment: Inhibition of proliferation of cultured lymphoid leukemia L1210 cells; assay type: cell-based; conditions: Mus musculus
Protocol: The 1,2-dihydropyrido[3,4-b]pyrazines of this invention are powerful inhibitors of the proliferation of cultured lymphoid luekemia L1210 cells as shown in Table IV.
(a) Concentration of agent that inhibits proliferation of cultured
lymphoid leukemia L1210 cells to 50% control growth during 48 hours. G. P
Wheeler, B. J. Bowdon, J. A. Werline, D. J. Adamson and C. Temple, Jr.,

[5] = system: Methotrexate-resistant line of P388 (tumor P7); conditions: methotrexate-resistant line of P388, 10^6 cell implant IP, 2 mg/kg, qd 1-9; cited from earlier work
[6] = system: lymphocytic leukemia P388 cells; conditions: sensitive line of P388, 10^6 cell implant IP, 2 mg/kg, qd 1-9; cited from earlier work
[7] = system: Methotrexate-resistant line of P388 (tumor P7); experiment: Activity against methotrexate-resistant line of P388 in mice; assay type: in vivo; conditions: methotrexate-resistant P388, schedule day 1, 100 mg/kg
Protocol: (e) Methotrexateresistant line of P388 (designated tumor P7 by the Drug
Evaluation Branch, National Cancer Institute). In mice with 10^6 cell
implant (IP), methotrexate at a dose of 2 mg/kg on the qd 1-9 schedule
gave a 2log cell kill against the sensitive line of P388 and a 2log
increase in cells against the methotrexateresistant line of P388.

KB cell = conditions: cited from earlier work
[8] = L1210, inhibits proliferation to 50% control growth during 48 hours (footnote a), read-out: ID50 (the source's name)

SMILES: CCOC(=O)Nc1cc2c(c(N)n1)N=C(CN(C)c1ccccc1)CN2 [NSC-181928]
activity against several neoplasms (several neoplasms): active against several neoplasms

IC50 [4, 8]: 7.9 nM
SMILES: CCOC(=O)Nc1cc2c(c(N)n1)N=C(CN(C)c1ccc(OC)cc1)CN2 [R = 4-CH3 OC6 H4 N(CH3)CH2 (R4 = H)]
activity against P388 cells resistant to vincristine [1]: active in mice against P388 cells that were resistant to vincristine
% ILS ([1]; vincristine-resistant P388, schedule day 1, 25 mg/kg): 150%
Mitotic Index 12 h ([2]; 0.03 μM): 0.64
Mitotic Index 12 h ([2]; 0.3 μM): 0.49
% ILS ([3]; schedule day 1, 25 mg/kg): 133%
% ILS ([3]; schedule day 1, 50 mg/kg): 80%

IC50 [4, 8]: 5.5 nM
SMILES: CCOC(=O)Nc1cc2c(c(N)n1)N=C(CN(C)c1ccc(OC)cc1)C(C)N2 (centres unmarked) [R = 4-CH3 OC6 H4 N(CH3)CH2 (R4 = CH3), Ethyl 5-Amino-1,2-dihydro-3-[[N-(4-methoxyphenyl)-N-methylamino]methyl]-2-methylpyrido[3,4-b]pyrazine-7-carbamate]
Mitotic Index 12 h ([2]; 0.3 μM): 0.66
% ILS ([3]; schedule days 1-5, 48 mg/kg): 53%

IC50 [4, 8]: 58 nM
SMILES: CCOC(=O)Nc1cc2c(c(N)n1)N=C(CN(C)c1ccc(C(=O)OC)cc1)CN2 [R = 4-CH3 O2 CC6 H4 N(CH3)CH2 (R4 = H), reference compound]
Mitotic Index 12 h ([2]; 0.1 μM): 0.44
Mitotic Index 12 h ([2]; 0.3 μM): 0.61
% ILS ([3]; schedule days 1-9, 25 mg/kg): 30%

SMILES: CC[C@]1(O)C[C@H]2CN(CCc3c([nH]c4ccccc34)[C@@](C(=O)OC)(c3cc4c(cc3OC)N(C=O)[C@H]3[C@@](O)(C(=O)OC)[C@H](OC(C)=O)[C@]5(CC)C=CCN6CC[C@]43[C@@H]65)C2)C1 [Vincristine, reference compound]
IC50 ([4]; L1210, 48 h, read-out: ID50): 1 nM

SMILES: CN(Cc1cnc2nc(N)nc(N)c2n1)c1ccc(C(=O)N[C@@H](CCC(=O)O)C(=O)O)cc1 [methotrexate]
log increase in cells [5]: 2 log
log cell kill [6]: 2 log

IC50 [4, 8]: 13 nM
SMILES: CCOC(=O)Nc1cc2c(c(N)n1)N=C(CCc1ccccc1)CN2 [R = C6 H5 CH2 CH2 (R4 = H), Ethyl 5-Amino-1,2-dihydro-3-(2-phenylethyl)pyrido(3,4-b)pyrazine-7-carbamate]
Mitotic Index 24 h ([2]; 0.3 μM): 0.33
% ILS ([3]; schedule day 1, 100 mg/kg): 29%

IC50 [4, 8]: 14.5 nM
SMILES: CCOC(=O)Nc1cc2c(c(N)n1)N=C(CN(C)c1ccc(Cl)cc1)CN2 [R = 4-ClC6 H4 N(CH3)CH2 (R4 = H)]
Mitotic Index 12 h ([2]; 0.03 μM): 0.71
% ILS ([3]; schedule day 1, 100 mg/kg): 65%

IC50 [4, 8]: 8.4 nM
SMILES: CCOC(=O)Nc1cc2c(c(N)n1)N=C(CN(C)c1ccccc1)CN2 [R = C6 H5 N(CH3)CH2 (R4 = H), Ethyl 5-Amino-1,2-dihydro-3-[(N-methyl-N-phenyl)aminomethyl]pyrido[3,4-b]pyrazine-7-carbamate]
% ILS [7]: 66%
activity against P388 cells resistant to vincristine [1]: active in mice against P388 cells that were resistant to vincristine
% ILS ([1]; vincristine-resistant P388, schedule day 1, 67 mg/kg): 90%
Mitotic Index 12 h ([2]; 0.03 μM): 0.77
Mitotic Index 24 h ([2]; 0.3 μM): 0.80
% ILS ([3]; schedule day 1, 100 mg/kg): 114%

SMILES: CCOC(=O)Nc1cc2c(c(N)n1)N=C(CN(C)c1ccc(C(=O)OC)cc1)CN2 [drawing 5]
cytotoxicity in the KB cell culture screen (KB cell): showed cytotoxicity in the KB cell culture screen
